Laboratory results as given in patent US12157730B2, “Heteroaryl derivative, method for producing same, and pharmaceutical composition comprising same as effective component” (VORONOI INC., priority 2019, dated 2024).

Target: T1, Ba/F3 cell EGFR Exon20 ins NPH (Homo sapiens, UniProt P00533, INS773NPH)
T1 construct: expressed in transfected cells; host or cells: Ba/F3
Assay: Ba/F3 cell proliferation suppression, EGFR Exon20 ins NPH
Assay type: cell-based
Settings: GI50 class; Ba/F3 cell line with NPH inserted at Exon20 of EGFR; 72 hours
Outline: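 After 72 h compound exposure (twelve 3-fold steps, 0.3 nM–50 um final), live cells were measured by CellTiter-Glo luminescence and growth expressed as % of control to derive GI50. Cells were seeded at 3000–5000 per well a day earlier; Ba/F3 medium contained IL-3; three repeats.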

SMILES | Ba/F3 (NPH) Activity
C=CC(=O)Nc1cc(Nc2cc(N3OCC[C@@H]3c3cccc(C#N)c3)ncn2)c(OC)cc1N1C[C@H]2CCN(C)[C@H]2C1 [compound 331, N-(5-((6-((R)-3-(3-cyanophenyl)isoxazolidine-2-yl)pyrimidine-4-yl)amino)-4-methoxy-2-((3aR, 6aR)-1-methylhexahydropyrrolo [3,4-b]pyrrole-5(1H)-yl)phenyl)acrylamide] | A (GI50 < 50 nM)
C=CC(=O)Nc1cc(Nc2cc(N3OCC[C@@H]3c3ccc(F)c(F)c3)ncn2)c(OC)cc1N1CCC(N2CCN(C3CC3)CC2)CC1 [Example 161, N-(2-(4-(4-cyclopropylpiperazine-1-yl)piperidine-1-yl)-5-((6-((R)-3-(3,4-difluorophenyl)isoxazolidine-2-yl)pyrimidine-4-yl)amino)-4-methoxyphenyl) acrylamide] | A (GI50 < 50 nM)
C=CC(=O)Nc1cc(Nc2cc(N3OCC[C@@H]3c3cccc4ccccc34)ncn2)c(OC)cc1N1CCC(N2CCN(CC)CC2)CC1 [compound 484, N-(2-(4-(4-ethylpiperazine-1-yl)piperidine-1-yl)-4-methoxy-5-((6-((R)-3-(naphthalene-1-yl)isoxazolidine-2-yl)pyrimidine-4-yl)amino)phenyl)acrylamide] | B (50 nM ≤ GI50 < 500 nM)
C=CC(=O)Nc1cc(Nc2cc(N3OCC[C@@H]3c3cccc(C(F)(F)F)c3)ncn2)c(OC)cc1N1CCN(C)CC1 [compound 450, N-(4-methoxy-2-(4-methylpiperazine-1-yl)-5-((6-((R)-3-(3-(trifluoromethyl)phenyl)isoxazolidine-2-yl)pyrimidine-4-yl)amino)phenyl)acrylamide] | A (GI50 < 50 nM)
C#Cc1cccc([C@H]2CCON2c2cc(Nc3cc(NC(=O)C=C)c(N4CCN(CC)CC4)cc3OC)ncn2)c1 [compound 648, N-(2-(4-ethylpiperazine-1-yl)-5-((6-((R)-3-(3-ethynylphenyl)isoxazolidine-2-yl)pyrimidine-4-yl)amino)-4-methoxyphenyl) acrylamide] | A (GI50 < 50 nM)
C=CC(=O)Nc1cc(Nc2cc(N3OCC[C@@H]3c3ccc(C)nc3)ncn2)c(OC)cc1N1CCC(N2CCOCC2)CC1 [Example 45, N-(4-methoxy-5-((6-((R)-3-(6-methylpyridine-3-yl)isoxazolidine-2-yl)pyrimidine-4-yl)amino)-2-(4-morpholinopiperidine-1-yl)phenyl) acrylamide] | B (50 nM ≤ GI50 < 500 nM)
C=CC(=O)Nc1cc(Nc2cc(N3OCC[C@@H]3c3c(F)cccc3F)ncn2)c(OC)cc1N1CCC(N2CCN(C3CC3)[C@@H](C)C2)CC1 [Example 136, N-(2-(4-((S)-4-cyclopropyl-3-methylpiperazine-1-yl)piperidine-1-yl)-5-((6-((R)-3-(2,6-difluorophenyl)isoxazolidine-2-yl)pyrimidine-4-yl)amino)-4-methoxyphenyl) acrylamide] | B (50 nM ≤ GI50 < 500 nM)
C=CC(=O)Nc1cc(Nc2cc(N3OCC[C@@H]3c3cc(F)ccc3F)ncn2)c(OC)cc1N1CCC(N2CC[C@@H](N(C)C)C2)CC1 [compound 304, N-(5-((6-((R)-3-(2,5-difluorophenyl)isoxazolidine-2-yl)pyrimidine-4-yl)amino)-2-(4-((R)-3-(dimethylamino)pyrolidine-1-yl)piperidine-1-yl)-4-methoxyphenyl) acrylamide] | A (GI50 < 50 nM)
C#Cc1cccc([C@H]2CCON2c2cc(Nc3cc(NC(=O)C=C)c(N4CCC(N5C[C@@H]6C[C@H]5CO6)CC4)cc3OC)ncn2)c1 [compound 618, N-(2-(4-((1S,4S)-2-oxa-5-azabicyclo[2.2.1]heptane-5-yl)piperidine-1-yl)-5-((6-((R)-3-(3-ethynylphenyl)isoxazolidine-2-yl)pyrimidine-4-yl)amino)-4-methoxyphenyl) acrylamide] | A (GI50 < 50 nM)
C=CCN1CCN(C2CCN(c3cc(OC)c(Nc4cc(N5OCC[C@@H]5c5cccc(F)c5F)ncn4)cc3NC(=O)C=C)CC2)CC1 [Example 209, N-(2-(4-(4-allylpiperazine-1-yl)piperidine-1-yl)-5-((6-((R)-3-(2,3-difluorophenyl)isoxazolidine-2-yl)pyrimidine-4-yl)amino)-4-methoxyphenyl) acrylamide] | A (GI50 < 50 nM)
C=CC(=O)Nc1cc(Nc2cc(N3OCC[C@@H]3c3ccc(Cl)c(Cl)c3)ncn2)c(OC)cc1N1CCC(N2CCOCC2)CC1 [compound 683, N-(5-((6-((R)-3-(3,4-dichlorophenyl)isoxazolidine-2-yl)pyrimidine-4-yl)amino)-4-methoxy-2-(4-morpholinopiperidine-1-yl)phenyl)acrylamide] | A (GI50 < 50 nM)
C=CC(=O)Nc1cc(Nc2cc(N3OCC[C@@H]3Cc3ccccn3)ncn2)c(OC)cc1N1CCC(N2CCN(C3CC3)CC2)CC1 [compound 1059, N-(2-(4-(4-cyclopropylpiperazine-1-yl)piperidine-1-yl)-4-methoxy-5-((6-((S)-3-(pyridine-2-ylmethyl)isoxazolidine-2-yl)pyrimidine-4-yl)amino)phenyl)acrylamide] | A (GI50 < 50 nM)
C=CC(=O)Nc1cc(Nc2cc(N3OCC[C@@H]3c3ccc(Cl)c(F)c3)ncn2)c(OC)cc1N1CCC(N2CCC(N(C)C)CC2)CC1 [compound 803, N-(5-((6-((R)-3-(4-chloro-3-fluorophenyl)isoxazolidine-2-yl)pyrimidine-4-yl)amino)-2-(4-(dimethylamino)-[1,4'-bipiperidine]-1'-yl)-4-methoxyphenyl) acrylamide] | A (GI50 < 50 nM)
C=CC(=O)Nc1cc(Nc2cc(N3OCC[C@@H]3c3ccc(F)cc3F)ncn2)c(OC)cc1N1CCN(C2CC2)C[C@@H]1C [compound 474, N-(2-((S)-4-cyclopropyl-2-methylpiperazine-(2,4-1-yl)-5-((6-((R)-3-difluorophenyl)isoxazolidine-2-yl)pyrimidine-4-yl)amino)-4-methoxyphenyl) acrylamide] | A (GI50 < 50 nM)
C=CC(=O)Nc1cc(Nc2cc(N3OCC[C@@H]3c3ccc(Cl)cc3)ncn2)c(OC)cc1N1CCC(N2CCN(C3CCC3)CC2)CC1 [Example 75, N-(5-((6-((R)-3-(4-chlorophenyl)isoxazolidine-2-yl)pyrimidine-4-yl)amino)-2-(4-(4-cyclobutylpiperazine-1-yl)piperidine-1-yl)-4-methoxyphenyl) acrylamide] | A (GI50 < 50 nM)
C=CC(=O)Nc1cc(Nc2cc(N3OCC[C@@H]3c3ccc(F)c(F)c3)ncn2)c(OC)cc1N1CCC(N2CCN(C)CC2)CC1 [compound 502, N-(5-((6-((R)-3-(3,4-difluorophenyl)isoxazolidine-2-yl)pyrimidine-4-yl)amino)-4-methoxy-2-(4-(4-methylpiperazine-1-yl)piperidine-1-yl)phenyl) acrylamide] | A (GI50 < 50 nM)
C=CC(=O)Nc1cc(Nc2cc(N3OCC[C@@H]3Cc3cccc(F)c3C)ncn2)c(OC)cc1N1CCC(N2C[C@@H]3C[C@H]2CO3)CC1 [compound 1040, N-(2-(4-((1S,4S)-2-oxa-5-azabicyclo [2.2.1]heptane-5-yl)piperidine-1-yl)-5-((6-((S)-3-(3-fluoro-2-methylbenzyl)isoxazolidine-2-yl)pyrimidine-4-yl)amino)-4-methoxyphenyl) acrylamide] | A (GI50 < 50 nM)
C=CC(=O)Nc1cc(Nc2cc(N3OCC[C@@H]3c3cc(F)ccc3F)ncn2)c(OC)cc1N1C[C@@H]2C[C@H]1CO2 [compound 329, N-(2-((1S,4S)-2-oxa-5-azabicyclo[2.2.1]heptane-5-yl)-5-((6-((R)-3-(2,5-difluorophenyl)isoxazolidine-2-yl)pyrimidine-4-yl)amino)-4-methoxyphenyl) acrylamide] | A (GI50 < 50 nM)
C=CC(=O)Nc1cc(Nc2cc(N3OCC[C@@H]3c3cccc(F)c3F)ncn2)c(OC)cc1N1C[C@H]2CCN(C)[C@H]2C1 [compound 875, N-(5-((6-((R)-3-(2,3-difluorophenyl)isoxazolidine-2-yl)pyrimidine-4-yl)amino)-4-methoxy-2-((3aR,6aR)-1-methylhexahydropyrrolo [3,4-b]pyrrole-5(1H)-yl)phenyl) acrylamide] | A (GI50 < 50 nM)
C=CC(=O)Nc1cc(Nc2cc(N3OCC[C@@H]3c3cccc(C(F)(F)F)c3)ncn2)c(OC)cc1N1CCC(N(C)C)CC1 [compound 451, N-(2-(4-(dimethlamino)piperidine-1-yl)-4-methoxy-5-((6-((R)-3-(3-(trifluoromethyl)phenyl)isoxazolidine-2-yl)pyrimidine-4-yl)amino)phenyl) acrylamide] | A (GI50 < 50 nM)
C=CC(=O)Nc1cc(Nc2cc(N3OCC[C@@H]3c3cc(F)cc(F)c3)ncn2)c(OC)cc1N1CCC(N2CCN(C(C)CC)CC2)CC1 (stereo partly drawn) [compound 894, N-(2-(4-(4-(sec-butyl)piperazine-1-yl)piperidine-1-yl)-5-((6-((R)-3-(3,5-difluorophenyl)isoxazolidine-2-yl)pyrimidine-4-yl)amino)-4-methoxyphenyl) acrylamide] | A (GI50 < 50 nM)
C=CC(=O)Nc1cc(Nc2cc(N3OCC[C@@H]3c3ccccc3)ncn2)c(OC)cc1N1CCC(N2C[C@@H](C)O[C@@H](C)C2)CC1 [Example 285, N-(2-(4-((2S,6R)-2,6-dimethylmorpholino)piperidine-1-yl)-4-methoxy-5-((6-((R)-3-phenylisoxazolidine-2-yl)pyrimidine-4-yl)amino)phenyl) acrylamide] | A (GI50 < 50 nM)
C=CC(=O)Nc1cc(Nc2cc(N3OCC[C@@H]3c3cc(F)cc(F)c3)ncn2)c(OC)cc1N1CCC(N2CC[C@@H](CN(C)C)C2)CC1 [compound 626, N-(5-((6-((R)-3-(3,5-difluorophenyl)isoxazolidine-2-yl)pyrimidine-4-yl)amino)-2-(4-((S)-3-((dimethylamino)methyl)pyrolidine-1-yl)piperidine-1-yl)-4-methoxyphenyl) acrylamide] | A (GI50 < 50 nM)
